Each structure is given as a SMILES string. Numbering of substitutions follows the chain as printed.

From article PMC11602622, “Evolution of queen pheromone receptor tuning in four honeybee species (Hymenoptera, Apidae, Apis)” (iScience, 2024) come the findings set out here.

Assay [1] deals with T1, AdorOR11.
T1 construct: gene OR11; full-length ORF, Drosophila codon-optimized synthetic gene (pUAST.attB, locus 51C); expressed in Drosophila at1 OSNs in place of DmelOR67d, with endogenous fly Orco and GCaMP6m; same length as the other OR11
Kind of assay: transcuticular GCaMP6m calcium imaging of Drosophila antenna, dose-response. In kind it is cell-based, Apis dorsata. As to conditions: agonist; airborne odorant, unit is dose loaded on filter paper, not a concentration; 1 s stimulus; solvent 2-propanol.

The target of assay [2] is T2, AcerOR11 (Apis cerana, UniProt A0A3G2FPT9).
T2 construct: full-length ORF, Drosophila codon-optimized synthetic gene (pUAST.attB, locus 51C); expressed in Drosophila at1 OSNs in place of DmelOR67d, with endogenous fly Orco and GCaMP6m; same length as the other OR11
T2 sequence (A0A3G2FPT9 1-394): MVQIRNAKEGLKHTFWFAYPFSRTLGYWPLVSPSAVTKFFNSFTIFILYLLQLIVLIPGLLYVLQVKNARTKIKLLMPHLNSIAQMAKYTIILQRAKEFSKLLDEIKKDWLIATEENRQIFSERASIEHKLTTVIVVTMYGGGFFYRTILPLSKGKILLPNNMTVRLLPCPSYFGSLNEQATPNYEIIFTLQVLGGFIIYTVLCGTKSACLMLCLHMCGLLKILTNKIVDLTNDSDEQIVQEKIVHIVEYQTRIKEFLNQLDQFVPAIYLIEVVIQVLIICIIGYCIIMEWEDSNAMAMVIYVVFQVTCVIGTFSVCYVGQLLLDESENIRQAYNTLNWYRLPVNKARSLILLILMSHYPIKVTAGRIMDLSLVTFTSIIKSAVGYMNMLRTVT
Described as above. Type of assay: cell-based. As to conditions: agonist; airborne odorant, unit is dose loaded on filter paper, not a concentration; 1 s stimulus; solvent 2-propanol.

Assay [3] has as its target T3, AmelOR11 (Apis mellifera, UniProt A0A7M6UWX0).
T3 construct: gene Or11; full-length ORF, Drosophila codon-optimized synthetic gene (pUAST.attB, locus 51C); expressed in Drosophila at1 OSNs in place of DmelOR67d, with endogenous fly Orco and GCaMP6m; same length as the other OR11
T3 sequence (A0A7M6UWX0 1-394): T2 sequence (A0A3G2FPT9 1-394) with V36F, I47T, L50F, Q52E, A69P, I112L, I228V, V229M, I239V, N345K
Described as above. Type of assay: cell-based. As to conditions: agonist; airborne odorant, unit is dose loaded on filter paper, not a concentration; 1 s stimulus; solvent 2-propanol.

The target in assay [4] is T2, AcerOR11. Kind of assay: transcuticular GCaMP6m calcium imaging of Drosophila antenna, single-dose screen. In kind it is cell-based. As to conditions: agonist; 100 μg on filter paper; 1 s stimulus; solvent 2-propanol.
Assay [5] relates to T4, AflorOR11.
T4 construct: gene OR11; full-length ORF, Drosophila codon-optimized synthetic gene (pUAST.attB, locus 51C); expressed in Drosophila at1 OSNs in place of DmelOR67d, with endogenous fly Orco and GCaMP6m; same length as the other OR11
Kind of assay: transcuticular GCaMP6m calcium imaging of Drosophila antenna, dose-response. Type of assay: cell-based, Apis florea. As to conditions: agonist; airborne odorant, unit is dose loaded on filter paper, not a concentration; 1 s stimulus; solvent 2-propanol.

Consider `CCCC(=O)C(=O)O` [2-oxovaleric acid], for which the EC50 stood at 139.3 ± 28.55 µg in assay [1], 208.5 ± 39.57 µg in assay [2] and 84.26 ± 15.52 µg in assay [3].
In the case of `CC(=O)CCC=C(C)C` [6-methyl-5-hepten-2-one], the “calcium response (ΔF/F0)” value in assay [4] was “AcerOR11 responded to a third secondary ligand: 6-methyl-5-hepten-2-one”.
In the case of `CC(=O)CCCCC/C=C/C(=O)O` [9-ODA, 9-oxo-(E)-2-decenoic acid], the EC50 worked out at 173.4 ± 22.22 µg in assay [1], 174.8 ± 26.05 µg in assay [2], 160.5 ± 28.46 µg in assay [3] and 175.8 ± 29.59 µg in assay [5].
`CCC/C=C/C(=O)O` [trans-2-hexenoic acid]: the values for the EC50 in assay [1], in assay [2] and in assay [3] were 124.2 ± 9.58 µg, 105.8 ± 9.62 µg and 239.2 ± 72.06 µg, respectively.
